The results in this text go back to patent US20250340577A1, “BETA-LACTOMASE INHIBITORS AND USES THEREOF” (Case Western Reserve University, priority 2021, published 2025).

What all share (assay type): cell-based
Assay [1] has as its system Klebsiella pneumonia/BAA-1705. Nature of the assay: MIC of MB076 alone or in combination with cefepime or meropenem. The settings on record: Klebsiella pneumoniae, BAA1705. The method, then:
(§1) MICs were determined by the Agar microdilution method, following CLSI guidelines. Compounds were tested at fixed concentration of 4 ug/ml in combination with cefepime.

Assay [2] relates to Klebsiella pneumonia/FDA-CDC AR-BANK#0097. Described as above. The settings on record: Klebsiella pneumoniae. Here is the method: as §1
Assay [3] relates to Klebsiella pneumonia/FDA-CDC AR-BANK#0098. Described as above. The conditions noted are these: Klebsiella pneumoniae. Here is the method: as §1
The next assay has as its system A. baumannii 0057. Nature of the assay: MIC with cefepime, agar microdilution, CLSI. The settings on record: compound fixed at 4 ug/ml; ADC-7. The method, then:
(§2) Minimum inhibitory concentration (MIC) of MB076 and derivatives (PCF_038-043) in combination with cefepime.
as §1

In the next assay the test system is E. coli 29838. Nature of the assay: MIC with cefepime, agar microdilution, CLSI. The conditions noted are these: compound fixed at 4 ug/ml; CTX-M-14, TEM-1. The method, then: as §2, §1
In another assay the test system is E. coli ATCC BAA202. Description: MIC with cefepime, agar microdilution, CLSI. The settings on record: compound fixed at 4 ug/ml; SHV-1. Here is the method:
as §2, §1

Assay [4] has as its system E. coli DH10B pBC-SK KPC-2. Nature of the assay: MIC with cefepime, agar microdilution, CLSI. The settings on record: compound fixed at 4 ug/ml. The method, then: as §2, §1
The next assay relates to E. coli DH10B pBC-SK P99. Description: MIC with cefepime, agar microdilution, CLSI. The settings on record: compound fixed at 4 ug/ml. Here is the method: as §2, §1
Assay [5] has as its system E. coli DH10B pBC-SK PDC-3. Description: MIC with cefepime, agar microdilution, CLSI. The settings on record: compound fixed at 4 ug/ml. The method, then: as §2, §1
Assay [6] has as its system E. coli DH10B pBC-SK SHV-2. Nature of the assay: MIC with cefepime, agar microdilution, CLSI. The settings on record: compound fixed at 4 ug/ml. The method, then:
as §2, §1

For assay [7], the system named is E. coli DH10B pBC-SK control. Description: MIC with cefepime, agar microdilution, CLSI. The conditions noted are these: compound fixed at 4 ug/ml; B-lactamases none. The method, then:
as §2, §1

In a further assay the test system is E. coli pLTCF1. Nature of the assay: MIC with cefepime, agar microdilution, CLSI. The settings on record: compound fixed at 4 ug/ml; CTX-M group 9. Here is the method: as §2, §1
The test system of a further assay is E. coli pLTCF2. Nature of the assay: MIC with cefepime, agar microdilution, CLSI. The conditions noted are these: compound fixed at 4 ug/ml. The method, then:
as §2, §1

The test system of a further assay is K. pneumoniae 253. Nature of the assay: MIC with cefepime, agar microdilution, CLSI. The settings on record: compound fixed at 4 ug/ml; TEM-12, SHV-5, CTX-M. Here is the method: as §2, §1
The test system of a further assay is K. pneumoniae 255. Description: MIC with cefepime, agar microdilution, CLSI. The settings on record: compound fixed at 4 ug/ml; TEM-1, SHV-2. The method, then:
as §2, §1

The test system of another assay is K. pneumoniae 266. Nature of the assay: MIC with cefepime, agar microdilution, CLSI. The settings on record: compound fixed at 4 ug/ml; SHV-5. Here is the method: as §2, §1
In another assay the test system is K. pneumoniae 34700. Description: MIC with cefepime, agar microdilution, CLSI. The settings on record: compound fixed at 4 ug/ml; CTX-M-15, SHV, TEM. Here is the method:
as §2, §1

In another assay the test system is K. pneumoniae 427. Nature of the assay: MIC with cefepime, agar microdilution, CLSI. The settings on record: compound fixed at 4 ug/ml; TEM-1, SHV-1, CTX-M-3. Here is the method: as §2, §1
In a further assay the test system is K. pneumoniae ST17. Nature of the assay: MIC with cefepime, agar microdilution, CLSI. The conditions noted are these: compound fixed at 4 ug/ml; KPC-2, TEM, SHV, CTX-M-Group 1. Here is the method:
as §2, §1

Another assay has as its system K. pneumoniae ST258 B5. Nature of the assay: MIC with cefepime, agar microdilution, CLSI. The conditions noted are these: compound fixed at 4 ug/ml; KPC-2. The method, then:
as §2, §1

The test system of a further assay is K. pneumoniae ST258 C3. Nature of the assay: MIC with cefepime, agar microdilution, CLSI. The settings on record: compound fixed at 4 ug/ml; KPC-3. The method, then: as §2, §1
For assay [8], the system named is K. pneumoniae original KPC-2. Description: MIC with cefepime, agar microdilution, CLSI. The settings on record: compound fixed at 4 ug/ml. The method, then:
as §2, §1

Read-outs that look alike come from different tables or passages of the source.

The MIC is the smallest concentration in the dilution series that meets the test's criterion for growth inhibition. For the compound `C[C@@H](O)[C@H]1C(=O)N2C(C(=O)O)=C(S[C@@H]3CN[C@H](C(=O)N(C)C)C3)[C@H](C)[C@H]12` [Meropenem, meropenem], the MIC in assay [1] (single agent, read-out: MIC) is 32 µg/mL; in assay [2] (single agent, read-out: MIC), more than 32 µg/mL; in assay [3] (single agent, read-out: MIC) it was 16 µg/mL.
On to `Cc1nnc(SCC(=O)N[C@@H](Cn2cc(C(=O)O)nn2)B(O)O)[nH]1` [PCF_038], for which the MIC of cefepime in combination with compound in the assay on A. baumannii 0057 is 64 µg/mL; with E. coli 29838, less than 0.25 µg/mL; with E. coli ATCC BAA202, 0.5 µg/mL; in [4], less than 0.25 µg/mL; with E. coli DH10B pBC-SK P99, less than 0.25 µg/mL; in [5], less than 0.25 µg/mL. Further, the MIC of cefepime in combination with compound in assay [6] was less than 0.25 µg/mL; in [7] it was less than 0.25 µg/mL; with E. coli pLTCF1, less than 0.25 µg/mL; in the assay with E. coli pLTCF2, less than 0.25 µg/mL; with K. pneumoniae 253 it was 2 µg/mL; in the assay with K. pneumoniae 255, 2 µg/mL. The MIC of cefepime in combination with compound in the assay with K. pneumoniae 266 is less than 0.25 µg/mL; in the assay on K. pneumoniae 34700, 1 µg/mL; in the assay with K. pneumoniae 427, less than 0.25 µg/mL; in the assay on K. pneumoniae ST17 it was 32 µg/mL; in the assay with K. pneumoniae ST258 B5, 16 µg/mL; in the assay on K. pneumoniae ST258 C3 it was 0.5 µg/mL. Moreover, the MIC of cefepime in combination with compound in assay [8] was less than 0.25 µg/mL.
As for `O=C(CNn1cnnc1S)N[C@@H](Cn1cc(C(=O)O)nn1)B(O)O` [PCF_039], the MIC of cefepime in combination with compound is 32 µg/mL with A. baumannii 0057; less than 0.25 µg/mL in the assay on E. coli 29838; less than 0.25 µg/mL in the assay with E. coli ATCC BAA202; less than 0.25 µg/mL in [4]; less than 0.25 µg/mL with E. coli DH10B pBC-SK P99; less than 0.25 µg/mL in assay [5]. Also, the MIC of cefepime in combination with compound in assay [6] was less than 0.25 µg/mL; in assay [7], less than 0.25 µg/mL; in the assay on E. coli pLTCF1 it was less than 0.25 µg/mL; in the assay on E. coli pLTCF2 it was less than 0.25 µg/mL; with K. pneumoniae 253 it was 1 µg/mL; in the assay with K. pneumoniae 255 it was 2 µg/mL. Besides, the MIC of cefepime in combination with compound is less than 0.25 µg/mL with K. pneumoniae 266; 1 µg/mL in the assay with K. pneumoniae 34700; less than 0.25 µg/mL in the assay on K. pneumoniae 427; 16 µg/mL in the assay on K. pneumoniae ST17; 4 µg/mL in the assay on K. pneumoniae ST258 B5; less than 0.25 µg/mL in the assay on K. pneumoniae ST258 C3. The MIC of cefepime in combination with compound in assay [8] stood at 0.5 µg/mL.
`O=C(CSC1=NCCS1)NC(Cn1cc(C(=O)O)nn1)B(O)O` (stereo not drawn) [PCF_040]: the MIC of cefepime in combination with compound in the assay with A. baumannii 0057 was 32 µg/mL; with E. coli 29838, 0.5 µg/mL; in the assay on E. coli ATCC BAA202, 2 µg/mL; in assay [4], 1 µg/mL; in the assay with E. coli DH10B pBC-SK P99 it was less than 0.25 µg/mL; in [5], less than 0.25 µg/mL. Also, the MIC of cefepime in combination with compound was 0.5 µg/mL in [6]; less than 0.25 µg/mL in assay [7]; 0.5 µg/mL with E. coli pLTCF1; less than 0.25 µg/mL with E. coli pLTCF2; 4 µg/mL in the assay with K. pneumoniae 253; 2 µg/mL in the assay with K. pneumoniae 255. In addition, the MIC of cefepime in combination with compound in the assay with K. pneumoniae 266 was less than 0.25 µg/mL; in the assay with K. pneumoniae 34700, 4 µg/mL; with K. pneumoniae 427, 1 µg/mL; with K. pneumoniae ST17, 32 µg/mL; with K. pneumoniae ST258 B5, 32 µg/mL; in the assay on K. pneumoniae ST258 C3, 2 µg/mL. In assay [8], the MIC of cefepime in combination with compound is 2 µg/mL.
Turning to `O=C(CNc1nnc(S)s1)N[C@@H](Cn1cc(C(=O)O)nn1)B(O)O` [PCF_041], the MIC of cefepime in combination with compound was 64 µg/mL in the assay with A. baumannii 0057; less than 0.25 µg/mL in the assay with E. coli 29838; 0.5 µg/mL with E. coli ATCC BAA202; less than 0.25 µg/mL in [4]; less than 0.25 µg/mL in the assay with E. coli DH10B pBC-SK P99; less than 0.25 µg/mL in assay [5]. Moreover, the MIC of cefepime in combination with compound in [6] was less than 0.25 µg/mL; in assay [7] it was less than 0.25 µg/mL; in the assay with E. coli pLTCF1 it was 0.5 µg/mL; with E. coli pLTCF2 it was less than 0.25 µg/mL; with K. pneumoniae 253 it was 2 µg/mL; in the assay on K. pneumoniae 266 it was less than 0.25 µg/mL. In addition, the MIC of cefepime in combination with compound stood at 2 µg/mL with K. pneumoniae 34700; 0.5 µg/mL in the assay on K. pneumoniae 427; 16 µg/mL with K. pneumoniae ST17; 16 µg/mL with K. pneumoniae ST258 B5; 1 µg/mL in the assay on K. pneumoniae ST258 C3; 0.5 µg/mL in assay [8].
For the compound `O=C(CSc1ccccn1)N[C@@H](Cn1cc(C(=O)O)nn1)B(O)O` [PCF_042], the MIC of cefepime in combination with compound in the assay with A. baumannii 0057 is 64 µg/mL; in the assay on E. coli 29838, less than 0.25 µg/mL; in the assay on E. coli ATCC BAA202 it was less than 0.25 µg/mL; in the assay on E. coli DH10B pBC-SK P99 it was less than 0.25 µg/mL; in [5], less than 0.25 µg/mL; in assay [6] it was less than 0.25 µg/mL. Besides, the MIC of cefepime in combination with compound in assay [7] was less than 0.25 µg/mL; in the assay with E. coli pLTCF1, less than 0.25 µg/mL; with E. coli pLTCF2, less than 0.25 µg/mL; in the assay on K. pneumoniae 255, 2 µg/mL; in the assay with K. pneumoniae 266 it was less than 0.25 µg/mL; in the assay with K. pneumoniae 34700, 1 µg/mL. Also, the MIC of cefepime in combination with compound in the assay on K. pneumoniae 427 is less than 0.25 µg/mL; in the assay on K. pneumoniae ST17, 32 µg/mL; in the assay on K. pneumoniae ST258 B5 it was 16 µg/mL; in the assay with K. pneumoniae ST258 C3 it was 0.5 µg/mL; in assay [8], less than 0.25 µg/mL.
As for `O=C(CS)N[C@@H](Cn1cc(C(=O)O)nn1)B(O)O` [PCF_043], the MIC of cefepime in combination with compound is 32 µg/mL in the assay with A. baumannii 0057; 0.5 µg/mL in the assay on E. coli 29838; 1 µg/mL in the assay with E. coli ATCC BAA202; 1 µg/mL in assay [4]; 1 µg/mL with E. coli DH10B pBC-SK P99; less than 0.25 µg/mL in assay [5]. The MIC of cefepime in combination with compound was less than 0.25 µg/mL in assay [6]; less than 0.25 µg/mL in assay [7]; 1 µg/mL in the assay on E. coli pLTCF1; less than 0.25 µg/mL in the assay on E. coli pLTCF2; 4 µg/mL in the assay with K. pneumoniae 253; 4 µg/mL in the assay on K. pneumoniae 255. For the same compound, the MIC of cefepime in combination with compound is less than 0.25 µg/mL in the assay with K. pneumoniae 266; 4 µg/mL with K. pneumoniae 34700; 1 µg/mL with K. pneumoniae 427; 32 µg/mL in the assay with K. pneumoniae ST17; 16 µg/mL with K. pneumoniae ST258 B5; 2 µg/mL in the assay on K. pneumoniae ST258 C3. The MIC of cefepime in combination with compound in assay [8] amounted to 1 µg/mL.
Consider `CN(C)c1cc(NC(=O)CNC(C)(C)C)c(O)c2c1C[C@H]1C[C@H]3[C@H](N(C)C)C(O)=C(C(N)=O)C(=O)[C@@]3(O)C(O)=C1C2=O` [Tigecycline], for which the MIC in [1] turned out to be 2 µg/mL; in assay [2] it was 4 µg/mL; in assay [3] it was 1 µg/mL.
